According to US9255072B2, “Pyrazole compounds and thiazole compounds as protein kinases inhibitors” (National Health Rsearch Institutes, priority 2011, dated 2016):
Read-outs that look alike come from different tables or passages of the source.

Molecular target: T1, Aurora A (Homo sapiens, UniProt O14965)
T1 construct: GST-Aurora A (residues S123-S401); GST (N); made in house; host or cells: Sf9 insect cells
T1 sequence (O14965 123-401): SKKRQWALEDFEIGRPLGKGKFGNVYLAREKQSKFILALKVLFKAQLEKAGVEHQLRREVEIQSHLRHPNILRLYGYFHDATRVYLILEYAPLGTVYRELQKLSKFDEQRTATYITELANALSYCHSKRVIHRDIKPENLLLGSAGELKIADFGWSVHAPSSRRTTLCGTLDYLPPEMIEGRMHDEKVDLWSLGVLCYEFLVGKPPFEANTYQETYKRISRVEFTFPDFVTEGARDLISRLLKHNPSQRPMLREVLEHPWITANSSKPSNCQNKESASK
Test: Aurora kinase A Kinase-Glo kinase assay
Format: biochemical
Protocol: The recombinant GST-Aurora A (residues S123-S401) containing kinase domain were expressed in Sf9 insect cells. The kinase assay were carried out in 96-well plates with tested compound in a final volume of 50 μl reaction at 37° C. for 90 minutes with following components: 50 mM Tris-HCl pH 7.4, 10 mM NaCl, 10 mM MgCl2, 0.01% BSA, 5 μM ATP, 1 mM DTT and 15 μM tetra(LRRASLG) peptide, and 150 ng recombinant Aurora A. Following incubation, 50 μl Kinase-Glo Plus Reagent (Promega, Madison, Wis., USA) was added to each well and the mixture was incubated at 25° C. for 20 min. A 70-μL aliquot of each reaction mixture was transferred to a black microtiter plate and the luminescence was measured on Wallac Vector 1420 multilabel counter (PerkinElmer, Shelton, Conn., USA).

[1] = Aurora A assay, 5 μM ATP, bound in nM, read-out: IC50
[2] = Aurora A assay, 5 μM ATP, bound in μM, read-out: IC50
[3] = table of representative values, read-out: IC50 (nM) Aurora A

Row | SMILES | IC50 [1] | IC50 [2] | IC50 [3]
1 | CCc1cc(NC(=O)Nc2ccc(-c3cnc(Nc4cc(N5CCN(CC)CC5)nc(C)n4)s3)cc2)no1 [Compound 112, N-(5-ethyl-3-isoxazolyl)-N′-[4-(2-[6-(4-ethylpiperazino)-2-methyl-4-pyrimidinyl]amino-1,3-thiazol-5-yl)phenyl]urea] | < 200 nM | < 1000 nM | 32 nM
2 | CCc1cc(NC(=O)Nc2ccc(-c3cnc(Nc4cc(N5CCC(N)C5)nc(C)n4)s3)cc2)no1 (stereo not drawn) [Compound 119, N-[4-(2-[6-(3-aminotetrahydro-1H-1-pyrrolyl)-2-methyl-4-pyrimidinyl]amino-1,3-thiazol-5-yl)phenyl]N′-(5-ethyl-3-isoxazolyl)urea] | < 200 nM | < 1000 nM | 38 nM
